Experimental data: US5140039A, “Aminomethyl-thiochroman compounds” (Abbott Laboratories, priority 1991, dated 1992)
Counter-ions that a name gives are not always drawn.

How the values were obtained:
alpha-1-receptor = target: T1, alpha-1-receptor (Rattus norvegicus, UniProt P15823); test: radioligand binding, [3H]-prazosin, rat liver homogenates
T1 construct: rat liver homogenates; from tissue; host or cells: rat liver homogenate
T1 sequence (P15823 1-515): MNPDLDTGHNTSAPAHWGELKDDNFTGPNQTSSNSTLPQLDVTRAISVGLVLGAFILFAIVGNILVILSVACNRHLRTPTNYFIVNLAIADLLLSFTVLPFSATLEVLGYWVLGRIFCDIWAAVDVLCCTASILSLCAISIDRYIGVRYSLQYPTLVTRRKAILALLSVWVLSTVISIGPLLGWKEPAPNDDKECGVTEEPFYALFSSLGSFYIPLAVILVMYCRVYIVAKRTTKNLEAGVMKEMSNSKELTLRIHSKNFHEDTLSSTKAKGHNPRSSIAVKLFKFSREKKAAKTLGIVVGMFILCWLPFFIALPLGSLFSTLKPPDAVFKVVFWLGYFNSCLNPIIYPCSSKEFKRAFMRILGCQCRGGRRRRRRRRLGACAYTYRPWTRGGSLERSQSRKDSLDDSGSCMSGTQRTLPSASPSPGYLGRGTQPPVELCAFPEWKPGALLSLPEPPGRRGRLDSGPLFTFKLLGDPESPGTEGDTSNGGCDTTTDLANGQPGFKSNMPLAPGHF
Experimental: (§1) The compounds were assessed for alpha-adrenergic receptor subtype selectivity by use of radioligand binding techniques as described previously (DeBernardis et.al. J. Med. Chem. 28 1398 (1985)). Affinity for the alpha-1-receptor was assessed using rat liver homogenates and the radioligand [^3 H]-prazosin; whereas for the alpha-2-receptor, rat cerebral cortices and the radioligand [^3 H]-rauwolscine were utilized. Results obtained from the binding studies are shown in Table 1 for a representative sample of compounds disclosed herein.

alpha-2-receptor = test: radioligand binding, [3H]-rauwolscine, rat cerebral cortices; conditions: for Ki: rat cerebral cortices, [3H]-rauwolscine; for alpha-2-Selectivity Ki alpha-1/Ki alpha-2: ratio Ki alpha-1/Ki alpha-2
Experimental: as §1

Ki (alpha-1-receptor) | Ki (alpha-2-receptor) | alpha-2-Selectivity Ki alpha-1/Ki alpha-2 (alpha-2-receptor) | Compound
260 nM | 24 nM | 11 | COc1ccc2c(c1)OCCC2CN(C)CCc1cccc(Cl)c1 (stereo not drawn) [Example 4, 4-((N-Methylamino)methyl-N-(2-(m-chlorophenyl)ethyl))-7-methoxy chroman hydrochloride]
1140 nM | 34 nM | 33 | CCN(CCc1cccc(Cl)c1)CC1CCOc2cc(OC)ccc21 (stereo not drawn) [Example 6, 4-((N-Ethylamino)methyl-N-(2-(m-chlorophenyl)ethyl))-7-methoxy chroman hydrochloride]
590 nM | 10 nM | 59 | COc1ccc2c(c1)OCCC2CN(C)CCc1cccs1 (stereo not drawn) [Example 7, 4-((N-Methylamino)methyl-N-(2-(2-thienyl)ethyl))-7-methoxy chroman hydrochloride]
96 nM | 3 nM | 32 | COc1ccc2c(c1OC)SCCC2CN(C)CCc1cccs1 (stereo not drawn) [Example 13, 4-((N-Methylamino)methyl-N-(2-(2-thienyl)ethyl))-7,8-dimethoxy thiochroman hydrochloride]
550 nM | 3 nM | 183 | COc1ccc2c(c1OC)OCCC2CN(C)CCc1cccc(F)c1 (stereo not drawn) [Example 25, 4-(N-Methylamino)methyl-N-(2-(m-fluorophenyl)ethyl))-7,8-dimethoxy chroman hydrochloride]
10000 nM | 5.8 nM | 1724 | COc1ccc2c(c1OC)OCCC2CN(C)CCc1cccs1 (stereo not drawn) [Example 26, 4-((N-Methylamino)methyl-N-(2-(2-thienyl)ethyl))-7,8-dimethoxy chroman hydrochloride]
1000 nM | 34 nM | 29 | CCN(CCc1cccs1)CC1CCOc2c1ccc(OC)c2C (stereo not drawn) [Example 28, 4-((N-Ethylamino)methyl-N-(20(2-thienyl)ethyl)-7-methoxy-8-methylchroman hydrochloride]
